Experimental findings from patent US20180291070A1, “PEPTIDES, AND USES THEREOF” (priority 2015, published 2018) are described below.

Ends that are not written are not given here.

One data set concerns GLUT4. As to the kind of experiment: GLUT4myc translocation in L6 myotubes. Type of data set: cell-based. An excerpt:
We determined the effect of six synthetic peptides (SP1-6) and four peptide compositions on in vitro GLUT4 translocation using the L6 rat skeletal muscle cell line. A clone of the L6 cell line containing overexpression of GLUT4 tagged with a c-myc epitope (courtesy of Prof. Amira Klip, Hospital for Sick Children, Toronto) was used to investigate the efficacy of each synthetic peptide and peptide composition for effects on GLUT4 translocation in a dose-response design.
L6-GLUT4myc cells were grown in 10% FBS and 2 μg/ml blasticidin. Cells were grown for 48-72 hours before being seeded in 24-well plates at 15,000 cells per well in 2% FBS and allowed to differentiate for 6 to 8 days prior to experimentation.
L6-GLUT4myc cells were serum-starved for three hours prior to incubation with 100 nM of insulin for 30 mins, or 200, 20, 2.0 and 0.2 μM of SP, and 2, 1, 0.5 and 0.25 mg/ml of peptide composition for 3 hours respectively. A 3 hour incubation period was selected based on previous findings identifying that incubation with branch chain amino acid containing di-peptides for 3 hours increases glucose uptake in L6 myotubes 1. Treatments were staggered in order to determine GLUT4myc translocation at the same time point.
The quantity of myc-tagged GLUT4 at the cell surface was measured by antibody-coupled colorimetric assay. Briefly, after incubation with either insulin for 30 mins or synthetic peptide or peptide composition for 3 hours respectively, L6-GLUT4myc cells were fixed via incubation with 3% paraformaldehyde (PFA). A 0.1 M glycine solution was then added to quench PFA and cells were blocked with 5% goat serum. The myotube monolayer was exposed to anti-myc antibody and then incubated with peroxidase conjugated donkey anti-mouse IgG. 1 mL of o-phenylenediamine dihydrochloride (OPD) reagent was added to each well and this reaction was stopped by adding […] of 3 M HCL. To determine GLUT4 translocation to cell surface, a measured aliquot of each condition was determined spectrophotometrically on a plate reader using absorbance at 492 nm.
In addition to an untreated control, 100 nM insulin was utilised to stimulate a maximal GLUT4 translocation response i.e. a positive control in each experiment. […] Treatments were staggered so that all conditions (untreated, insulin and sample) were processed at the same time-point.

The subject of the next data set is E. coli ATCC 25922. As to the kind of experiment: microbe, parasite or virus in culture. In kind it is cell-based. The procedure:
(§1) Blank disks were placed in the plates and 10 μL of each compound (at 64 μg/mL—maximum concentration tested) added.
(§2) After incubation period results were registered and plates photographed.

For the next data set, the system named is A. baumannii ATCC 19606. Put plainly: antibacterial activity testing in solid media (disk, Mueller-Hinton plates). In kind it is cell-based, Acinetobacter baumannii. Also on record: key to Inhibition zone diameter (mm): NI—No Inhibition of growth. The conditions noted are these: for Inhibition zone diameter (mm): 10 μL at 64 μg/mL on disk. The method, then: as §1, §2

Another data set concerns MRSA ATCC 43300. As to the kind of experiment: microbe, parasite or virus in culture. Type of data set: cell-based, Methicillin-Resistant Staphylococcus aureus. The method, then:
as §1, §2

[1] abbreviates: final result, not at the levels of susceptibility.

On to “VLDLAIPVNRPGQL [SP2, glucose transport promoting fragment of Pea Protein P13918, Section C]”, for which, in the data set on GLUT4 (0.2-2 μM, 3 hours), the GLUT4 translocation entry is “trend for SP2 to increase GLUT4 translocation”. Also, the “stimulatory effect on skeletal muscle GLUT4 translocation” value in the data set on GLUT4 (conclusion of the experiment) is given as “trend for stimulatory effect”.

For LNSQKFPILNLVQLSATR [I_87_SF], the inhibition zone with E. coli ATCC 25922 (ATCC 25922) is listed as 9-10 mm; in the data set on MRSA ATCC 43300 (agar plates) it was 18 mm. The inhibitory activity entry in the data set on E. coli ATCC 25922 (setting [1]) is “some inhibitory activity”; with A. baumannii ATCC 19606 (final result), “No activity”; with MRSA ATCC 43300 (setting [1]), “some inhibitory activity”. The “Inhibition zone diameter (mm)” value with A. baumannii ATCC 19606 (Rep 1), with A. baumannii ATCC 19606 (Rep 2) and with A. baumannii ATCC 19606 (Rep 3) was “NI” in each case.

Take insulin [reference compound]: the “average increase in cell surface GLUT4 translocation compared to untreated control” value with GLUT4 (100 nM, 30 mins) was 1.72 fold.

Turning to DTFYNAAWDPSNR [SP1, reference compound], in the data set with GLUT4 (200 μM, L6-GLUT4myc cells), the cell viability entry is recorded as “poor cell viability”.
